PubChem BioAssay AID1259407 (Chemical Carcinogenesis Research Information System (CCRIS), 2018)
Calls of active or inactive are those of the source. The rule behind the calls is not given here.

System: CCRIS mutagenicity, Ames/micronucleus/aberration tests
Assay: CCRIS mutagenicity studies
[1] = Test System: AMES SALMONELLA TYPHIMURIUM, Strain/Indicator: TA100, Metabolic Activation: HAMSTER, LIVER, S-9, AROCLOR 1254 (10%), Method: PREINCUBATION
[2] = Test System: AMES SALMONELLA TYPHIMURIUM, Strain/Indicator: TA100, Metabolic Activation: NONE, Method: PREINCUBATION
[3] = Test System: AMES SALMONELLA TYPHIMURIUM, Strain/Indicator: TA100, Metabolic Activation: RAT, LIVER, S-9, AROCLOR 1254 (10%), Method: PREINCUBATION
[4] = Test System: AMES SALMONELLA TYPHIMURIUM, Strain/Indicator: TA1535, Metabolic Activation: HAMSTER, LIVER, S-9, AROCLOR 1254 (10%), Method: PREINCUBATION
[5] = Test System: AMES SALMONELLA TYPHIMURIUM, Strain/Indicator: TA1535, Metabolic Activation: NONE, Method: PREINCUBATION
[6] = Test System: AMES SALMONELLA TYPHIMURIUM, Strain/Indicator: TA1535, Metabolic Activation: RAT, LIVER, S-9, AROCLOR 1254 (10%), Method: PREINCUBATION
[7] = Test System: AMES SALMONELLA TYPHIMURIUM, Strain/Indicator: TA98, Metabolic Activation: NONE, Method: STANDARD PLATE
[8] = Test System: AMES SALMONELLA TYPHIMURIUM, Strain/Indicator: TA100, Metabolic Activation: NONE, Method: STANDARD PLATE
[9] = Test System: AMES SALMONELLA TYPHIMURIUM, Strain/Indicator: TA100, Metabolic Activation: RAT, LIVER, S-9, AROCLOR 1254, Method: STANDARD PLATE

CCN(C(=O)N(CC)c1ccccc1)c1ccccc1
mutagenic call (Test System: AMES SALMONELLA TYPHIMURIUM, Strain/Indicator: TA97, Metabolic Activation: HAMSTER, LIVER, S-9, AROCLOR 1254 (10%), Method: PREINCUBATION): inactive; negative
mutagenic call (Test System: AMES SALMONELLA TYPHIMURIUM, Strain/Indicator: TA97, Metabolic Activation: HAMSTER, LIVER, S-9, AROCLOR 1254 (30%), Method: PREINCUBATION): inactive; negative
mutagenic call (Test System: AMES SALMONELLA TYPHIMURIUM, Strain/Indicator: TA97, Metabolic Activation: NONE, Method: PREINCUBATION): inactive; negative
mutagenic call (Test System: AMES SALMONELLA TYPHIMURIUM, Strain/Indicator: TA97, Metabolic Activation: RAT, LIVER, S-9, AROCLOR 1254 (10%), Method: PREINCUBATION): inactive; negative
mutagenic call (Test System: AMES SALMONELLA TYPHIMURIUM, Strain/Indicator: TA97, Metabolic Activation: RAT, LIVER, S-9, AROCLOR 1254 (30%), Method: PREINCUBATION): inactive; negative
mutagenic call (Test System: AMES SALMONELLA TYPHIMURIUM, Strain/Indicator: TA98, Metabolic Activation: HAMSTER, LIVER, S-9, AROCLOR 1254 (10%), Method: PREINCUBATION): inactive; negative
mutagenic call (Test System: AMES SALMONELLA TYPHIMURIUM, Strain/Indicator: TA98, Metabolic Activation: HAMSTER, LIVER, S-9, AROCLOR 1254 (30%), Method: PREINCUBATION): inactive; negative
mutagenic call (Test System: AMES SALMONELLA TYPHIMURIUM, Strain/Indicator: TA98, Metabolic Activation: NONE, Method: PREINCUBATION): inactive; negative
mutagenic call (Test System: AMES SALMONELLA TYPHIMURIUM, Strain/Indicator: TA98, Metabolic Activation: RAT, LIVER, S-9, AROCLOR 1254 (10%), Method: PREINCUBATION): inactive; negative
mutagenic call (Test System: AMES SALMONELLA TYPHIMURIUM, Strain/Indicator: TA98, Metabolic Activation: RAT, LIVER, S-9, AROCLOR 1254 (30%), Method: PREINCUBATION): inactive; negative
mutagenic call [1]: inactive; negative
mutagenic call (Test System: AMES SALMONELLA TYPHIMURIUM, Strain/Indicator: TA100, Metabolic Activation: HAMSTER, LIVER, S-9, AROCLOR 1254 (30%), Method: PREINCUBATION): inactive; negative
mutagenic call [2]: inactive; negative
mutagenic call [3]: inactive; negative
mutagenic call (Test System: AMES SALMONELLA TYPHIMURIUM, Strain/Indicator: TA100, Metabolic Activation: RAT, LIVER, S-9, AROCLOR 1254 (30%), Method: PREINCUBATION): inactive; negative
mutagenic call [4]: inactive; negative
mutagenic call (Test System: AMES SALMONELLA TYPHIMURIUM, Strain/Indicator: TA1535, Metabolic Activation: HAMSTER, LIVER, S-9, AROCLOR 1254 (30%), Method: PREINCUBATION): inactive; negative
mutagenic call [5]: inactive; negative
mutagenic call [6]: inactive; negative
mutagenic call (Test System: AMES SALMONELLA TYPHIMURIUM, Strain/Indicator: TA1535, Metabolic Activation: RAT, LIVER, S-9, AROCLOR 1254 (30%), Method: PREINCUBATION): inactive; negative

O=C(C(Cl)Cl)C(Cl)Cl
mutagenic call [7]: active; positive
mutagenic call [8]: active; positive

CCC(CC)[N+](=O)[O-]
mutagenic call [2]: inactive; negative
mutagenic call (Test System: AMES SALMONELLA TYPHIMURIUM, Strain/Indicator: TA100, Metabolic Activation: RAT, LIVER, S-9, AROCLOR, Method: PREINCUBATION): inactive; negative
mutagenic call (Test System: AMES SALMONELLA TYPHIMURIUM, Strain/Indicator: TA102, Metabolic Activation: NONE, Method: PREINCUBATION): inactive; negative
mutagenic call (Test System: AMES SALMONELLA TYPHIMURIUM, Strain/Indicator: TA102, Metabolic Activation: RAT, LIVER, S-9, AROCLOR, Method: PREINCUBATION): inactive; negative
mutagenic call (Test System: UDS RAT HEPATOCYTES, Strain/Indicator: THY INCORP, Metabolic Activation: NONE): active; positive

ClCc1ccc2ccc3cc4ccccc4c4ccc1c2c34
mutagenic call [7]: inactive; negative
mutagenic call [8]: inactive; negative

CCC(=O)N(O)c1ccc(Cl)c(Cl)c1
mutagenic call (Test System: AMES SALMONELLA TYPHIMURIUM, Strain/Indicator: TA97, Metabolic Activation: NONE, Method: STANDARD PLATE): inactive; negative
mutagenic call (Test System: AMES SALMONELLA TYPHIMURIUM, Strain/Indicator: TA97, Metabolic Activation: RAT, LIVER, S-9, AROCLOR 1254, Method: STANDARD PLATE): inactive; negative
mutagenic call [7]: inactive; negative
mutagenic call (Test System: AMES SALMONELLA TYPHIMURIUM, Strain/Indicator: TA98, Metabolic Activation: RAT, LIVER, S-9, AROCLOR 1254, Method: STANDARD PLATE): inactive; negative
mutagenic call [8]: inactive; negative
mutagenic call [9]: inactive; negative
mutagenic call (Test System: AMES SALMONELLA TYPHIMURIUM, Strain/Indicator: TA104, Metabolic Activation: NONE, Method: STANDARD PLATE): inactive; negative
mutagenic call (Test System: AMES SALMONELLA TYPHIMURIUM, Strain/Indicator: TA104, Metabolic Activation: RAT, LIVER, S-9, AROCLOR 1254, Method: STANDARD PLATE): inactive; negative

CC1CO1 (stereo not drawn)
mutagenic call (End Point: IN VITRO CHROMOSOMAL ABERRATIONS, Test System: CHL CELLS, Metabolic Activation: NONE): active; positive (structural changes)
mutagenic call (End Point: IN VITRO CHROMOSOMAL ABERRATIONS, Test System: CHL CELLS, Metabolic Activation: RAT, LIVER, S-9, SODIUM PHENOBARBITAL AND 5,6-BENZOFLAVONE): active; positive (structural changes)
mutagenic call (End Point: IN VITRO CHROMOSOMAL ABERRATIONS, Test System: CHO CELLS, Metabolic Activation: NONE): active; positive; weak response
mutagenic call [1]: active; positive
mutagenic call (Test System: AMES SALMONELLA TYPHIMURIUM, Strain/Indicator: TA100, Metabolic Activation: NONE, Method: FLASK VAPORIZATION): active; positive
mutagenic call [2]: active; positive
mutagenic call [8]: active; positive
mutagenic call (Test System: AMES SALMONELLA TYPHIMURIUM, Strain/Indicator: TA100, Metabolic Activation: NONE, Method: SUSPENSION/PLATE): active; positive
mutagenic call [3]: active; positive
mutagenic call (Test System: AMES SALMONELLA TYPHIMURIUM, Strain/Indicator: TA100, Metabolic Activation: RAT, LIVER, S-9, AROCLOR 1254, Method: FLASK VAPORIZATION): active; positive
mutagenic call [9]: active; positive
mutagenic call [4]: active; positive
mutagenic call (Test System: AMES SALMONELLA TYPHIMURIUM, Strain/Indicator: TA1535, Metabolic Activation: NONE, Method: FLASK VAPORIZATION): active; positive
mutagenic call [5]: active; positive
mutagenic call (Test System: AMES SALMONELLA TYPHIMURIUM, Strain/Indicator: TA1535, Metabolic Activation: NONE, Method: STANDARD PLATE): active; positive
mutagenic call (Test System: AMES SALMONELLA TYPHIMURIUM, Strain/Indicator: TA1535, Metabolic Activation: NONE, Method: SUSPENSION/PLATE): active; positive
mutagenic call [6]: active; positive
mutagenic call (Test System: AMES SALMONELLA TYPHIMURIUM, Strain/Indicator: TA1535, Metabolic Activation: RAT, LIVER, S-9, AROCLOR 1254, Method: FLASK VAPORIZATION): active; positive
mutagenic call (Test System: AMES SALMONELLA TYPHIMURIUM, Strain/Indicator: TA1535, Metabolic Activation: RAT, LIVER, S-9, AROCLOR 1254, Method: STANDARD PLATE): active; positive
mutagenic call (Test System: Ames Salmonella typhimurium, Strain/Indicator: YG7108, Metabolic Activation: None, Method: Standard plate): active; positive
mutagenic call (Test System: MOUSE LYMPHOMA, Strain/Indicator: L5178Y (TK+/TK-), Metabolic Activation: NONE, Method: SUSPENSION/PLATE): active; positive
